Reference: PubChem BioAssay AID2060336 (Molecular Pharmacology Branch, DTP, NCI, 2025)

Test system: 958767-090-R-J1-PDC spheroid growth
Test: Anticancer human tumor 958767-090-R-J1-PDC patient-derived head and neck squamous carcinoma cell line growth inhibition [IpAb]
Details: spheroids with HUVEC and MSC; for IC50: curve of first compound; for viability, T/C: stronger effect = lower value
Description: Combinatorial screen of targeted agents with ipatasertib and abemaciclib in multi-cell type tumor spheroids
A high-throughput screen of multi-cell type tumor spheroids was designed to identify active combinations of targeted small molecules and ipatasertib or abemaciclib. Complex spheroids include a stromal component modeled by human endothelial cells (HUVEC) and fibroblasts modeled by human mesenchymal stem cells (MSCs). The concentration ranges selected for each drug and investigational agent were based upon clinically achievable concentrations if the clinical Cmax of the agent was known.
Compounds. The drugs and investigational agents: ipatasertib (NSC767898), abemaciclib(NSC768073), selumetinib (NSC741078), trametinib (758246), adavosertib (NSC754352), everolimus (NSC733504), sapanisertib (NSC764658), vemurafenib (NSC761431), venetoclax (NSC766270), copanlisib (NSC809693), apelisib (NSC765974), palbociblib (NSC758247), vemurafenib (NSC761431), dabrafenib (NSC764134), ravoxertinib (NSC781343), BMS-387032 (NSC767048), sotorasib (NSC818433), talazoparib (NSC767125) and afursertib (NSC778305), were obtained from the National Cancer Institute (NCI) Developmental Therapeutics Program Chemical Repository. The FDA-approved anticancer drug set is available from the NCI Developmental Therapeutics Program. […] The stock solutions were prepared in dimethyl sulfoxide (DMSO, Sigma-Aldrich, St. Louis, MO, cat. D2650) at 800-fold the tested concentration and stored at -70 degrees C prior to their use. All drugs and investigational agents were tested over a range starting from a high concentration at or near the clinical Cmax and decreasing in half-log increments. If the clinical Cmax for an agent had not been determined, the highest concentration tested was 10 microM.
NCI60 Cell Culture. NCI60 cell lines were obtained from the NCI Developmental Therapeutics Program Tumor Repository. For each lot of cells, the Repository performed Applied Biosystems AmpFLSTR Identifiler testing with PCR amplification to confirm consistency with the published Identifier STR profile for each cell line. Cells were kept in continuous culture for no more than 20 passages. The optimal seeding densities for each of the cell lines at each time point assessed were determined prior to performing the concentration response studies. Briefly, the NCI60 human tumor lines were grown as monolayers in RPMI 1640 medium supplemented with 10% FBS and 2 mmol/L L-glutamine.
An additional 9 lines were from the NCI60 cell line panel including MDA-MB-231 breast carcinoma, MDA-MB-468 breast carcinoma, MCF7 breast carcinoma, Hs578T breast carcinoma, MALME-3M melanoma, SK-MEL-2 melanoma, SK-OV-3 ovarian carcinoma, DU-145 prostate carcinoma, PC-3 prostate carcinoma, all cell lines along with major genetic alterations are listed on Table 2. Pooled donor human umbilical vein endothelial cells (HUVEC, Lonza, cat. CC-2519) and human mesenchymal stem cells (hMSC, Lonza, cat. PT-2501) were purchased from Lonza (Walkersville, MD).
PDMR cell lines were grown in complete medium (DC medium): Dulbecco's modified Eagle's medium (DMEM)/F12 supplemented with 5% fetal bovine serum (FBS), 2 mM L-glutamine, 100 U/mL penicillin and 100 µg/ml streptomycin, 0.4 µg/ml hydrocortisone, 10 ng/ml epidermal growth factor (EGF) recombinant human protein, 24 µg/mL adenine, and 0.1 mg/mL primocin. During culture from frozen stock vials, PDMR cells were cultured in the same medium containing 10 µM Y-27632 (see Table 3). The PDCs were cultured in complete DMEM/F12 media without 10 microM Y-27632 dihydrochloride for at least two passages prior to the screen. The pooled donor HUVEC and hMSC were cultured in endothelial cell growth medium 2 (PromoCell, Heidelberg, Germany, cat. C-22011) and mesenchymal stem cell growth medium 2 (PromoCell, cat. C-28009), respectively. For all experiments, HUVEC and hMSC were used at passages </=5.
[…]
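Note: spheroids exposed to agents for 7 days.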
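Throughout, for viability, T/C: 100% = DMSO vehicle control wells.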

Question: `C=CCn1c(=O)c2cnc(Nc3ccc(N4CCN(C)CC4)cc3)nc2n1-c1cccc(C(C)(C)O)n1` + CC(C)NCC(C(=O)N1CCN(c2ncnc3c2C(C)CC3O)CC1)c1ccc(Cl)cc1 was tested. Which IC50 (second compound 0.1 µM) did it give?
Answer: 0.179 µM

Question: And the IC50 (second compound 0.316 µM)?
Answer: 0.085 µM

Question: And the IC50 (second compound 1 µM)?
Answer: 0.0455 µM

Question: What about the IC50 (second compound 3.16 µM) of the same compound?
Answer: 0.0459 µM

Question: What about the IC50 (second compound 10 µM) of the same compound?
Answer: < 0.0316 µM

Question: And the viability, T/C (second compound 0.1 µM, first compound 0.0316 µM)?
Answer: 88.2%

Question: And the viability, T/C (second compound 0.1 µM, first compound 0.1 µM)?
Answer: 65%

Question: And the viability, T/C (second compound 0.1 µM, first compound 0.316 µM)?
Answer: 35%

Question: What about the viability, T/C (second compound 0.1 µM, first compound 1 µM) of the same compound?
Answer: 25%

Question: And the viability, T/C (second compound 0.1 µM, first compound 3.16 µM)?
Answer: 23.7%

Question: And the viability, T/C (second compound 0.1 µM, first compound 10 µM)?
Answer: 19.6%

Question: And the viability, T/C (second compound 0.316 µM, first compound 0.0316 µM)?
Answer: 64.1%

Question: And the viability, T/C (second compound 0.316 µM, first compound 0.1 µM)?
Answer: 47.7%

Question: And the viability, T/C (second compound 0.316 µM, first compound 0.316 µM)?
Answer: 24.2%

Question: And the viability, T/C (second compound 0.316 µM, first compound 1 µM)?
Answer: 17%

Question: What about the viability, T/C (second compound 0.316 µM, first compound 3.16 µM) of the same compound?
Answer: 17.8%

Question: What about the viability, T/C (second compound 0.316 µM, first compound 10 µM) of the same compound?
Answer: 15.2%

Question: And the viability, T/C (second compound 1 µM, first compound 0.0316 µM)?
Answer: 52.1%

Question: And the viability, T/C (second compound 1 µM, first compound 0.1 µM)?
Answer: 45.4%

Question: And the viability, T/C (second compound 1 µM, first compound 0.316 µM)?
Answer: 23.5%

Question: And the viability, T/C (second compound 1 µM, first compound 1 µM)?
Answer: 15.6%

Question: What about the viability, T/C (second compound 1 µM, first compound 3.16 µM) of the same compound?
Answer: 16.9%

Question: What about the viability, T/C (second compound 1 µM, first compound 10 µM) of the same compound?
Answer: 13%

Question: What about the viability, T/C (second compound 3.16 µM, first compound 0.0316 µM) of the same compound?
Answer: 55%

Question: What about the viability, T/C (second compound 3.16 µM, first compound 0.1 µM) of the same compound?
Answer: 39.6%

Question: What about the viability, T/C (second compound 3.16 µM, first compound 0.316 µM) of the same compound?
Answer: 22.2%

Question: And the viability, T/C (second compound 3.16 µM, first compound 1 µM)?
Answer: 16.2%

Question: What about the viability, T/C (second compound 3.16 µM, first compound 3.16 µM) of the same compound?
Answer: 14.8%

Question: What about the viability, T/C (second compound 3.16 µM, first compound 10 µM) of the same compound?
Answer: 11.9%

Question: What about the viability, T/C (second compound 10 µM, first compound 0.0316 µM) of the same compound?
Answer: 39.1%

Question: What about the viability, T/C (second compound 10 µM, first compound 0.1 µM) of the same compound?
Answer: 32.4%

Question: And the viability, T/C (second compound 10 µM, first compound 0.316 µM)?
Answer: 17.9%

Question: And the viability, T/C (second compound 10 µM, first compound 1 µM)?
Answer: 13.9%

Question: What about the viability, T/C (second compound 10 µM, first compound 3.16 µM) of the same compound?
Answer: 13.6%

Question: And the viability, T/C (second compound 10 µM, first compound 10 µM)?
Answer: 7.78%

Question: What does the source list for `Cn1cnc2c(F)c(Nc3ccc(Br)cc3Cl)c(C(=O)NOCCO)cc21` + CC(C)NCC(C(=O)N1CCN(c2ncnc3c2C(C)CC3O)CC1)c1ccc(Cl)cc1?
Answer: IC50 (second compound 0.1 µM): 0.0182 µM; IC50 (second compound 0.316 µM): < 0.00949 µM; IC50 (second compound 1 µM): < 0.00949 µM; IC50 (second compound 3.16 µM): < 0.00949 µM; IC50 (second compound 10 µM): < 0.00949 µM; viability, T/C (second compound 0.1 µM, first compound 0.00949 µM): 62%; viability, T/C (second compound 0.1 µM, first compound 0.03 µM): 38.9%; viability, T/C (second compound 0.1 µM, first compound 0.0949 µM): 30.5%; viability, T/C (second compound 0.1 µM, first compound 0.3 µM): 20.8%; viability, T/C (second compound 0.1 µM, first compound 0.949 µM): 17.7%; viability, T/C (second compound 0.1 µM, first compound 3 µM): 9.06%; viability, T/C (second compound 0.316 µM, first compound 0.00949 µM): 36%; viability, T/C (second compound 0.316 µM, first compound 0.03 µM): 26.8%; viability, T/C (second compound 0.316 µM, first compound 0.0949 µM): 19.2%; viability, T/C (second compound 0.316 µM, first compound 0.3 µM): 14.3%; viability, T/C (second compound 0.316 µM, first compound 0.949 µM): 9.47%; viability, T/C (second compound 0.316 µM, first compound 3 µM): 3.29%; viability, T/C (second compound 1 µM, first compound 0.00949 µM): 28.1%; viability, T/C (second compound 1 µM, first compound 0.03 µM): 21.7%; viability, T/C (second compound 1 µM, first compound 0.0949 µM): 15.2%; viability, T/C (second compound 1 µM, first compound 0.3 µM): 10.1%; viability, T/C (second compound 1 µM, first compound 0.949 µM): 4.39%; viability, T/C (second compound 1 µM, first compound 3 µM): 1.34%; viability, T/C (second compound 3.16 µM, first compound 0.00949 µM): 30.4%; viability, T/C (second compound 3.16 µM, first compound 0.03 µM): 18.6%; viability, T/C (second compound 3.16 µM, first compound 0.0949 µM): 10.1%; viability, T/C (second compound 3.16 µM, first compound 0.3 µM): 6.15%; viability, T/C (second compound 3.16 µM, first compound 0.949 µM): 1.7%; viability, T/C (second compound 3.16 µM, first compound 3 µM): 0.65%; viability, T/C (second compound 10 µM, first compound 0.00949 µM): 21.7%; viability, T/C (second compound 10 µM, first compound 0.03 µM): 9.62%; viability, T/C (second compound 10 µM, first compound 0.0949 µM): 4.16%; viability, T/C (second compound 10 µM, first compound 0.3 µM): 1.43%; viability, T/C (second compound 10 µM, first compound 0.949 µM): 0.55%; viability, T/C (second compound 10 µM, first compound 3 µM): 0.67%
